Reference: patent US20240368664A1, “LIVE YEAST BIOSENSORS AND METHODS OF USE THEREOF” (priority 2021, published 2024)
Where “and” joins values, the source holds several entries; their conditions need not be identical. Equal values may be shown once. No end group written: not given here.

Experiments:
[1] = Metal-binding peptide absorbance scan; type: physicochemical; conditions: for absorbance maxima of copper complexes: 1 mM copper, 1 mM peptide, 50 mM Tris/HCl, NaClO4 buffer
[2] = tested on: CaSte2; conditions: for Hill Slope: CaSte2 (yTC384), no protease, Hill function best-fit ± standard error; for response of CaSte2 / EC50 compared to the native CaPep: alanine scan, system without CaBar1 (yTC384)
[3] = tested on: CaSte2 with protease CaBar1; conditions: CaSte2 + CaBar1 (yBB02); Hill function best-fit ± standard error
[4] = molecular target: ScSte2 with protease ScBar1 (Saccharomyces cerevisiae, UniProt D6VTK4); type: cell-based
Sequence of ScSte2 with protease ScBar1 (D6VTK4 whole entry): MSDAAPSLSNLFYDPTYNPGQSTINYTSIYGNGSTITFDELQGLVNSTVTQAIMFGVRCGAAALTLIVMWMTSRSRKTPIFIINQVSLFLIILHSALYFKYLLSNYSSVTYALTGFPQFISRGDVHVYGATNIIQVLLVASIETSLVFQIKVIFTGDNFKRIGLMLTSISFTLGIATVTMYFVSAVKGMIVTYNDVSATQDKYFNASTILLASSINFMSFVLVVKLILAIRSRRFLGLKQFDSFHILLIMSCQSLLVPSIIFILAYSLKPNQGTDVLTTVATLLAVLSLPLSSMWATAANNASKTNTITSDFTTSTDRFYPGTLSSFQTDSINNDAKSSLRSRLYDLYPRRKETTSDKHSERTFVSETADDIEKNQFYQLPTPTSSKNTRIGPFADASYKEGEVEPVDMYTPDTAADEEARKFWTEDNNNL

[5] = molecular target: ScSte2 (Saccharomyces cerevisiae, UniProt D6VTK4); assay: ScSte2 biosensor dose-response, ymTurquoise2 readout, no protease (incl. ScPep alanine scan, yTC391); type: cell-based; conditions: Hill function best-fit ± standard error
Sequence of ScSte2 (D6VTK4 whole entry): as above

[6] = molecular target: T1, Candida albicans pheromone GPCR CaSte2 (Candida albicans); assay: cell-based or functional assay
T1 sequence: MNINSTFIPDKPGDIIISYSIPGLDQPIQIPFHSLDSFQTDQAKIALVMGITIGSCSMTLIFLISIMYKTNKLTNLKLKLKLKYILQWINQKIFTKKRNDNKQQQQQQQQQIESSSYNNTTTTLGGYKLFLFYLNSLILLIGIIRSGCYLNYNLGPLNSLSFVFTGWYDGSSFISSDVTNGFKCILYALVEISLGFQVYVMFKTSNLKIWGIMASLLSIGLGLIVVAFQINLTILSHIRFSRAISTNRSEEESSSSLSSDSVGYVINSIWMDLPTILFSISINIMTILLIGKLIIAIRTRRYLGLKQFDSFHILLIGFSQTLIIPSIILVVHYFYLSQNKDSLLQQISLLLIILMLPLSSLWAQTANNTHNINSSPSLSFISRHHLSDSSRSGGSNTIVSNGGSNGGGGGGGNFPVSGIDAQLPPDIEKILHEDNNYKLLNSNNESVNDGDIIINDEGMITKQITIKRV

[7] = molecular target: T2, Saccharomyces cerevisiae pheromone GPCR ScSte2 (Saccharomyces cerevisiae) (UniProt D6VTK4); assay: cell-based or functional assay
T2 sequence: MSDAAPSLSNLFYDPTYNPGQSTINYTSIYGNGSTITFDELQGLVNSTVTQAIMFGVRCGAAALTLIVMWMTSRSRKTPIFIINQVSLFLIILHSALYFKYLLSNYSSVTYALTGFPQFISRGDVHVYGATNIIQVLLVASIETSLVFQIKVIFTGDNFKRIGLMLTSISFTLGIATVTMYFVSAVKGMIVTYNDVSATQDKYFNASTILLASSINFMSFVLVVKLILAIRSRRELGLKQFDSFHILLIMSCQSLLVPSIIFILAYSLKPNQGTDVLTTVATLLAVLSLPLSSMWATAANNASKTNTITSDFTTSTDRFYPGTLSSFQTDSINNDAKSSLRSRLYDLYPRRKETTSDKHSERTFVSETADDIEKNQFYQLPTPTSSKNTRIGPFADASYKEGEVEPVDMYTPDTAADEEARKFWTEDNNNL

[8] = molecular target: T3, A. fumigatus pheromone GPCR (AfuSte2) (Aspergillus fumigatus); assay: cell-based or functional assay
T3 sequence: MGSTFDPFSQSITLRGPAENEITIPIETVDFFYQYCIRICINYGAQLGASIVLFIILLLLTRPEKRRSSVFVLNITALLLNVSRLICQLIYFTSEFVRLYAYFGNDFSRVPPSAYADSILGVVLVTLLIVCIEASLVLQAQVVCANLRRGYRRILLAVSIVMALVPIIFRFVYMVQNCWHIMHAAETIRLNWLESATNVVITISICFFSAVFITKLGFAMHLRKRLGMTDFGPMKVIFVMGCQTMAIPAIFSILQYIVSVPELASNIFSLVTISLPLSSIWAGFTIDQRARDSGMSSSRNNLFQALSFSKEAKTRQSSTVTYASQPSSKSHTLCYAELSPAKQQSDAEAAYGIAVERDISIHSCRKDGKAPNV

O.O.[Cl][Cu][Cl] [Copper, CuCl2×2H2O]
absorbance peak ([1]; copper alone in Tris/HCl buffer): 630 nm

AAH
absorbance maxima of copper complexes [1]: 520 nm

AFRLTNFGYFEPG [CaPep1A]
Hill Slope [2]: 3.0 ± 0.4 | Hill Slope [3]: 1.1 ± 0.22

AHWLQLKPGQPMY [ScPep1A]
Bottom [4]: −3.1 ± 5.8 A.U. | Hill Slope [4]: 0.76 ± 0.06 | LogEC50 [4]: −5.9 ± 0.1 M | Top [4]: 350 ± 10 A.U. | Hill Slope [5]: 3.4 ± 0.8

C. albicans pheromone peptide (CaPep)
EC50, lycopene readout, strains preincubated, +CaBar1 [6]: 4000 nM | EC50, ymTurquoise2, biosensor with CaBar1 (pRPL18B) [6]: 90 nM | EC50, ymTurquoise2, biosensor without protease [6]: 7 nM | LogEC50 [6]: -7.2 log M | Top [6]: 460 A.U. and 420 A.U.

CaPep1A (peptide)
Top [6]: 460 A.U. and 410 A.U.

CaPep2A13A (peptide)
EC50, ymTurquoise2, strain with the protease CaBar1 [6]: 70 nM | EC50, ymTurquoise2, strain without the protease [6]: 50 nM | LogEC50 [6]: -7 log M and -6.5 log M | Top [6]: 790 A.U. and 680 A.U.

CaPep3A (peptide)
Top [6]: 460 A.U.

CaPep4A (peptide)
LogEC50 [6]: -6.5 log M and -6.1 log M | Top [6]: 460 A.U. and 410 A.U.

CaPep5A (peptide)
LogEC50 [6]: -5.2 log M and -4.9 log M | Top [6]: 15 A.U. and 13 A.U.

CaPep6A (peptide)
LogEC50 [6]: -6.2 log M and -5.9 log M | Top [6]: 570 A.U. and 450 A.U.

CaPep7A (peptide)
LogEC50 [6]: -5.5 log M and -5.6 log M | Top [6]: 34 A.U. and 17 A.U.

CaPep8A (peptide)
Top [6]: 640 A.U. and 460 A.U.

CaPep9A (peptide)
Top [6]: 700 A.U. and 480 A.U.

DAHK (UniProt P02768 25-28, looked up, fragment)
absorbance maxima of copper complexes [1]: 520 nm

GFALTNFGYFEPG [CaPep3A]
Hill Slope [2]: 2.0 ± 0.1 | Hill Slope [3]: 0.74 ± 0.08

GFRATNFGYFEPG [CaPep4A]
Hill Slope [2]: 1.3 ± 0.1 | Hill Slope [3]: 2.4 ± 0.4

GFRLANFGYFEPG [CaPep5A]
Hill Slope [2]: 2.7 ± 0.7 | response of CaSte2 [2]: practically non-responsive

GFRLTAFGYFEPG [CaPep6A]
Hill Slope [2]: 4.4 ± 0.4 | Hill Slope [3]: 1.7 ± 0.2

GFRLTNAGYFEPG [7A]
Hill Slope [2]: 1.4 ± 0.1 | response of CaSte2 [2]: practically non-responsive | Hill Slope [3]: 2.2 ± 0.4

GFRLTNFAYFEPG [CaPep8A]
Hill Slope [2]: 1.3 ± 0.3 | Hill Slope [3]: 1.0 ± 0.1

GFRLTNFGAAEPG [9A10A]
Hill Slope [2]: 0.99 ± 0.04 | EC50 compared to the native CaPep [2]: more than two orders of magnitude higher EC50 | Hill Slope [3]: 1.0 ± 0.1

GFRLTNFGAFEPG [CaPep9A]
Hill Slope [2]: 1.9 ± 0.1 | Hill Slope [3]: 1.7 ± 0.2

GFRLTNFGYAEPG [CaPep10A]
Hill Slope [2]: 2.8 ± 0.5 | EC50 compared to the native CaPep [2]: more than two orders of magnitude higher EC50 | Hill Slope [3]: 2.6 ± 0.13

GFRLTNFGYFAPG [CaPep11A]
Hill Slope [3]: 1.5 ± 0.2

GFRLTNFGYFEAA [12A13A]
Hill Slope [2]: 2.8 ± 0.1 | EC50 compared to the native CaPep [2]: more than two orders of magnitude higher EC50 | Hill Slope [3]: 1.8 ± 0.1

GFRLTNFGYFEAG [12A]
Hill Slope [2]: 0.95 ± 0.04 | EC50 compared to the native CaPep [2]: more than two orders of magnitude higher EC50 | Hill Slope [3]: 1.1 ± 0.1

S. cerevisiae pheromone peptide (ScPep)
EC50 (mCherry/OD600) [7]: 2 nM | Top [7]: 380 A.U. and 390 A.U.

ScPep1A (peptide)
Top [7]: 320 A.U. and 350 A.U.

ScPep2A (peptide)
Top [7]: 270 A.U. and 350 A.U.

ScPep3A (peptide)
Top [7]: 280 A.U. and 370 A.U.

ScPep4A (peptide)
Top [7]: 250 A.U. and 340 A.U.

ScPep5A (peptide)
Top [7]: 380 A.U. and 340 A.U.

ScPep6A (peptide)
Top [7]: 310 A.U. and 390 A.U.

ScPep7A (peptide)
Top [7]: 400 A.U. and 380 A.U.

ScPep8A (peptide)
Top [7]: 430 A.U. and 440 A.U.

ScPep9A (peptide)
Top [7]: 370 A.U. and 440 A.U.

ScPep10A (peptide)
Top [7]: 380 A.U. and 420 A.U.

ScPep11A (peptide)
Top [7]: 410 A.U.

ScPep12A (peptide)
Top [7]: 410 A.U. and 450 A.U.

ScPep13A (peptide)
Top [7]: 360 A.U. and 490 A.U.

Scα-Smt3 (α-factor fused to the N-terminus of full-length Smt3, 6x-His-tag at the opposite terminus) (from UniProt Q12306 2-98)
EC50 (mCherry/OD600) [7]: 149 nM

Smt3-Scα (α-factor fused to the C-terminus of full-length Smt3, 6x-His-tag at the opposite terminus) (from UniProt Q12306 1-98)
EC50 (mCherry/OD600) [7]: 208 nM

Smt3-Scα-Smt3 (two Smt3 fused in tandem with an α-factor linker, N-terminus 6x-His-tag) (from UniProt Q12306 1-98; Q12306 2-98)
EC50 (mCherry/OD600) [7]: 1080 nM

WAWLQLKPGQPMY [ScPep2A]
Bottom [4]: 5.9 ± 3.0 A.U. | Hill Slope [4]: 1.5 ± 0.1 | LogEC50 [4]: −5.0 ± 0.1 M | Top [4]: 350 ± 10 A.U. | Hill Slope [5]: 3.7 ± 0.2

WHALQLKPGQPMY [ScPep3A]
Bottom [4]: 6.4 ± 2.6 A.U. | Hill Slope [4]: 0.74 ± 0.05 | LogEC50 [4]: −4.6 ± 0.1 M | Top [4]: 370 ± 20 A.U. | Hill Slope [5]: 2.5 ± 0.1

WHWAQLKPGQPMY [ScPep4A]
Bottom [4]: −1.6 ± 2.9 A.U. | Hill Slope [4]: 0.72 ± 0.04 | LogEC50 [4]: −5.4 ± 0.1 M | Top [4]: 340 ± 10 A.U.

WHWLALKPGQPMY [ScPep5A]
Bottom [4]: 0.52 ± 8.7 A.U. | Hill Slope [4]: 1.2 ± 0.2 | LogEC50 [4]: −6.3 ± 0.1 M | Top [4]: 340 ± 10 A.U. | Hill Slope [5]: 3.4 ± 0.3

WHWLQAKPGQPMY [ScPep6A]
Bottom [4]: 0.38 ± 5.71 A.U. | Hill Slope [4]: 0.99 ± 0.10 | LogEC50 [4]: −5.5 ± 0.1 M | Top [4]: 390 ± 10 A.U. | Hill Slope [5]: 5.6 ± 0.7

WHWLQLAPGQPMY [ScPep7A]
Bottom [4]: 5.7 ± 1.3 A.U. | Hill Slope [4]: 1.7 ± 0.1 | LogEC50 [4]: −5.4 ± 0.1 M | Top [4]: 380 ± 10 A.U. | Hill Slope [5]: 2.6 ± 0.4

WHWLQLKAGQPMY [ScPep8A]
Bottom [4]: 4.6 ± 2.6 A.U. | Hill Slope [4]: 1.1 ± 0.1 | LogEC50 [4]: −5.6 ± 0.1 M | Top [4]: 440 ± 10 A.U. | Hill Slope [5]: 2.7 ± 0.1

WHWLQLKPAQPMY [ScPep9A]
Bottom [4]: 3.7 ± 2.1 A.U. | Hill Slope [4]: 1.2 ± 0.1 | LogEC50 [4]: −4.8 ± 0.2 M | Top [4]: 440 ± 10 A.U. | Hill Slope [5]: 5.0 ± 1.3

WHWLQLKPGAPMY [ScPep10A]
Bottom [4]: 8.3 ± 1.6 A.U. | Hill Slope [4]: 1.8 ± 0.1 | LogEC50 [4]: −5.2 ± 0.1 M | Top [4]: 420 ± 10 A.U. | Hill Slope [5]: 5.3 ± 3.7

WHWLQLKPGQAMY [ScPep11A]
Bottom [4]: 8.0 ± 2.5 A.U. | Hill Slope [4]: 1.5 ± 0.1 | LogEC50 [4]: −5.6 ± 0.1 M | Top [4]: 410 ± 10 A.U. | Hill Slope [5]: 4.6 ± 1.3

WHWLQLKPGQPAY [ScPep12A]
Bottom [4]: 2.5 ± 2.9 A.U. | Hill Slope [4]: 1.3 ± 0.1 | LogEC50 [4]: −6.0 ± 0.1 M | Top [4]: 450 ± 10 A.U.

WHWLQLKPGQPMA [ScPep13A]
Bottom [4]: 4.6 ± 2.5 A.U. | Hill Slope [4]: 1.2 ± 0.1 | LogEC50 [4]: −5.1 ± 0.1 M | Top [4]: 490 ± 10 A.U. | Hill Slope [5]: 8.2 ± 3.1

synthetic A. fumigatus pheromone peptide (AfuPep)
EC50, GFP of the sender strain [8]: 4 nM | EC50, mCherry reporter in yeast [8]: 100 nM | EC50, mCherry, fine-tuned optimized strain [8]: 40 nM | EC50, mCherry, strain with natural signaling pathway [8]: 10 nM | LoD, lycopene readout, yTC590 [8]: 50 nM | activation fold change, fine-tuned optimized strain [8]: 2900 fold | activation fold change, strain with natural signaling pathway [8]: 19 fold | fold change of fluorescence readout [8]: 4000 fold | limit of detection (LoD), lycopene readout, yTC527 [8]: 30 nM | maximal activation, mCherry, fine-tuned optimized strain [8]: 2900 A.U. | maximal activation, mCherry, strain with natural signaling pathway (yMJ194) [8]: 450 A.U.
